Literature values, collected in patent publication US12358983B2, “Combination of anti CD19 antibody with a BCL-2 inhibitor and uses thereof” (Incyte Corporation, priority 2016, dated 2025).

Experiments:
[1] = system: primary cells from patients with B-cell malignancies; settings: in vitro studies; cited from earlier work
[2] = mouse, in vivo; cited from earlier work
[3] = system: lymphoma and other blood cancers; settings: in vivo; cited from earlier work

CN(C)CC[C@H](CSc1ccccc1)Nc1ccc(S(=O)(=O)NC(=O)c2ccc(N3CCN(Cc4ccccc4-c4ccc(Cl)cc4)CC3)cc2)cc1[N+](=O)[O-] [ABT-737]
Sensitivity of primary cells (in words) [1]: sensitive
Effect in animal models (in words) [2]: improves survival, causes tumor regression and cures a high percentage of mice
Efficacy in patient xenografts (in words) [3]: showed efficacy
